Patent US12383545B1, “Treatment of migraine” (priority 2018, dated 2025)

Key:
[1] = system: patients with migraine (4 to 14 migraine/probable migraine headache days); test: Example 5: randomized double-blind placebo-controlled 12-week dose-regimen study (QD and BID), migraine/probable migraine (MPM) headache days efficacy; assay type: in vivo, human; settings: mITT population
Protocol: In a multicenter, randomized, double-blind, placebo-controlled, parallel-group study designed to evaluate the efficacy, safety, and tolerability of multiple doses and doses regimens of atogepant for the prevention of migraine. The patients were randomized (2:1:2:1:2:1) to 1 of 6 treatment groups: placebo, atogepant 10 mg QD, atogepant 30 mg QD, atogepant 30 mg BID, atogepant 60 mg QD, and atogepant 60 mg BID.
This study consisted of a 4-week screening and baseline period and a 12-week double-blind treatment period, which was followed by a 4-week safety follow-up period. Total study duration is 20-weeks.
To be randomized, eligible patients had to be 18 to 75 years of age (inclusive), have a history of migraine with or without aura for at least 1 year consistent with a diagnosis according to the International Classification of Headache Disorders criteria, 3rd edition, beta version, have experienced 4 to 14 migraine/probable migraine headache days and <15 headache days in the 28-day baseline period. Patients who had clinically significant hematologic, endocrine, cardiovascular, cerebrovascular, pulmonary, renal, hepatic, gastrointestinal, or neurologic disease were excluded from the study.
A total of 834 patients were randomized to double-blind treatment (ITT population), and 825 patients took at least 1 dose of double-blind IP (safety population). […] The primary efficacy variable was the change from baseline in mean monthly migraine/probable migraine headache days across the 12-week treatment period. The secondary efficacy variables were the change from baseline in mean monthly headache days across the 12-week treatment period, proportion of patients with at least a 50% reduction in mean monthly migraine/probable migraine headache days across the 12-week treatment period, and the change from baseline in mean monthly acute medication use days across the 12-week treatment period.

[2] = human, in vivo
Protocol: Data was also evaluated from Study C (described in Example 3) and Study D, a Phase 2b/3 clinical trial evaluating the efficacy, safety, and tolerability of orally administered atogepant. In Study D, after a 28 day baseline period, a total of 652 patients were randomized 1:2:2:2 to receive either atogepant 10 mg (n=94), atogepant 30 mg (n=185), atogepant 60 mg (n=187) or placebo (n=186).
The proportion of patients with weight decrease ≥7% at any point was 2.8% for placebo, 3.8% for atogepant 10 mg, 3.2% for atogepant 30 mg, and 4.9% for atogepant 60 mg. No patients in either study discontinued atogepant due to decreased weight.

[3] = Weeks 1-4, Atogepant 60 mg BID (N = 87)
[4] = Weeks 1-4, Atogepant 60 mg QD (N = 177)
[5] = Weeks 5-8, Atogepant 10 mg QD (N = 92)
[6] = Weeks 5-8, Atogepant 30 mg BID (N = 79)
[7] = Weeks 5-8, Atogepant 30 mg QD (N = 182)
[8] = Weeks 5-8, Atogepant 60 mg BID (N = 87)
[9] = Weeks 5-8, Atogepant 60 mg QD (N = 177)
[10] = Weeks 9-12, Atogepant 10 mg QD (N = 92)
[11] = Weeks 9-12, Atogepant 30 mg BID (N = 79)
[12] = Weeks 9-12, Atogepant 30 mg QD (N = 182)
[13] = Weeks 9-12, Atogepant 60 mg BID (N = 87)
[14] = Weeks 9-12, Atogepant 60 mg QD (N = 177)

C[C@@H]1[C@H](c2c(F)ccc(F)c2F)C[C@H](NC(=O)c2cnc3c(c2)C[C@@]2(C3)C(=O)Nc3ncccc32)C(=O)N1CC(F)(F)F [atogepant]
Non-responders (at least 100% reduction in mean monthly MPM headache days not met), (%) [1, 3]: (79.3) % | Non-responders (at least 100% reduction in mean monthly MPM headache days not met), n [1, 3]: 69 | Odds ratio vs. Placebo, at least 100% reduction in mean monthly MPM headache days [1, 3]: 7.43 | Responders (at least 100% reduction in mean monthly MPM headache days), (%) [1, 3]: (20.7) % | Responders (at least 100% reduction in mean monthly MPM headache days), n [1, 3]: 18 | Non-responders (at least 100% reduction in mean monthly MPM headache days not met), (%) [1, 4]: (85.2) % | Non-responders (at least 100% reduction in mean monthly MPM headache days not met), n [1, 4]: 150 | Odds ratio vs. Placebo, at least 100% reduction in mean monthly MPM headache days [1, 4]: 4.94 | Responders (at least 100% reduction in mean monthly MPM headache days), (%) [1, 4]: (14.8) % | Responders (at least 100% reduction in mean monthly MPM headache days), n [1, 4]: 26 | Non-responders (at least 100% reduction in mean monthly MPM headache days not met), (%) [1, 5]: (79.1) % | Non-responders (at least 100% reduction in mean monthly MPM headache days not met), n [1, 5]: 68 | Odds ratio vs. Placebo, at least 100% reduction in mean monthly MPM headache days [1, 5]: 2.34 | Responders (at least 100% reduction in mean monthly MPM headache days), (%) [1, 5]: (20.9) % | Responders (at least 100% reduction in mean monthly MPM headache days), n [1, 5]: 18 | Non-responders (at least 100% reduction in mean monthly MPM headache days not met), (%) [1, 6]: (80.3) % | Non-responders (at least 100% reduction in mean monthly MPM headache days not met), n [1, 6]: 57 | Odds ratio vs. Placebo, at least 100% reduction in mean monthly MPM headache days [1, 6]: 2.26 | Responders (at least 100% reduction in mean monthly MPM headache days), (%) [1, 6]: (19.7) % | Responders (at least 100% reduction in mean monthly MPM headache days), n [1, 6]: 14 | Non-responders (at least 100% reduction in mean monthly MPM headache days not met), (%) [1, 7]: (73.3) % | Non-responders (at least 100% reduction in mean monthly MPM headache days not met), n [1, 7]: 121 | Odds ratio vs. Placebo, at least 100% reduction in mean monthly MPM headache days [1, 7]: 3.26 | Responders (at least 100% reduction in mean monthly MPM headache days), (%) [1, 7]: (26.7) % | Responders (at least 100% reduction in mean monthly MPM headache days), n [1, 7]: 44 | Non-responders (at least 100% reduction in mean monthly MPM headache days not met), (%) [1, 8]: (73.8) % | Non-responders (at least 100% reduction in mean monthly MPM headache days not met), n [1, 8]: 59 | Odds ratio vs. Placebo, at least 100% reduction in mean monthly MPM headache days [1, 8]: 3.25 | Responders (at least 100% reduction in mean monthly MPM headache days), (%) [1, 8]: (26.3) % | Responders (at least 100% reduction in mean monthly MPM headache days), n [1, 8]: 21 | Non-responders (at least 100% reduction in mean monthly MPM headache days not met), (%) [1, 9]: (79.9) % | Non-responders (at least 100% reduction in mean monthly MPM headache days not met), n [1, 9]: 135 | Odds ratio vs. Placebo, at least 100% reduction in mean monthly MPM headache days [1, 9]: 2.31 | Responders (at least 100% reduction in mean monthly MPM headache days), (%) [1, 9]: (20.1) % | Responders (at least 100% reduction in mean monthly MPM headache days), n [1, 9]: 34 | Non-responders (at least 100% reduction in mean monthly MPM headache days not met), (%) [1, 10]: (79.8) % | Non-responders (at least 100% reduction in mean monthly MPM headache days not met), n [1, 10]: 67 | Odds ratio vs. Placebo, at least 100% reduction in mean monthly MPM headache days [1, 10]: 1.43 | Responders (at least 100% reduction in mean monthly MPM headache days), (%) [1, 10]: (20.02) % | Responders (at least 100% reduction in mean monthly MPM headache days), n [1, 10]: 17 | Non-responders (at least 100% reduction in mean monthly MPM headache days not met), (%) [1, 11]: (71.0) % | Non-responders (at least 100% reduction in mean monthly MPM headache days not met), n [1, 11]: 49 | Odds ratio vs. Placebo, at least 100% reduction in mean monthly MPM headache days [1, 11]: 2.42 | Responders (at least 100% reduction in mean monthly MPM headache days), (%) [1, 11]: (29.0) % | Responders (at least 100% reduction in mean monthly MPM headache days), n [1, 11]: 20 | Non-responders (at least 100% reduction in mean monthly MPM headache days not met), (%) [1, 12]: (77.0) % | Non-responders (at least 100% reduction in mean monthly MPM headache days not met), n [1, 12]: 117 | Odds ratio vs. Placebo, at least 100% reduction in mean monthly MPM headache days [1, 12]: 1.72 | Responders (at least 100% reduction in mean monthly MPM headache days), (%) [1, 12]: (23.0) % | Responders (at least 100% reduction in mean monthly MPM headache days), n [1, 12]: 35 | Non-responders (at least 100% reduction in mean monthly MPM headache days not met), (%) [1, 13]: (67.6) % | Non-responders (at least 100% reduction in mean monthly MPM headache days not met), n [1, 13]: 48 | Odds ratio vs. Placebo, at least 100% reduction in mean monthly MPM headache days [1, 13]: 2.59 | Responders (at least 100% reduction in mean monthly MPM headache days), (%) [1, 13]: (32.4) % | Responders (at least 100% reduction in mean monthly MPM headache days), n [1, 13]: 23 | Non-responders (at least 100% reduction in mean monthly MPM headache days not met), (%) [1, 14]: (73.2) % | Non-responders (at least 100% reduction in mean monthly MPM headache days not met), n [1, 14]: 120 | Odds ratio vs. Placebo, at least 100% reduction in mean monthly MPM headache days [1, 14]: 2.07 | Responders (at least 100% reduction in mean monthly MPM headache days), (%) [1, 14]: (26.8) % | Responders (at least 100% reduction in mean monthly MPM headache days), n [1, 14]: 44 | TEAE Weight decreased [2]: 5 (0.4%) n (%)
